Experimental data taken from patent US8323708B2, “Poultry meat and eggs comprising beneficial fatty acids” (Monsanto Technology LLC, priority 2009, dated 2012).

Experiments:
[1] = 21 day broiler study: long chain fatty acid composition of skinless breast meat; format: in vivo, broiler chickens; settings: day 21-42
Protocol: (§1) A 21 day study was conducted to determine whether broiler chickens fed a diet containing SDA could produce meat with elevated levels of omega-3 fatty acids including EPA and DHA.
(§2) Fifty pens of four birds per pen were used. There were 25 pens of males and 25 pens of females. Five pens of males and five pens of females were each fed one of five treatment diets from day 21 to 42 days of age. Prior to day 21 all birds were fed a standard 22% protein starter diet formulated to meet NRC (1994) nutrient requirements (shown in Table 16 as “S” diet). The feed prepared was feed as a crumble.
(§3) The test diets were prepared and fed in mash form. All broilers had ad libitum access to feed and water for the duration of the 21 day study. The composition of the diets (Table 4) and premixes (Table 5) are provided below.
(§4) To help prevent oxidation of the fatty acids, 0.05% ethoxyquin (Rendox) was added to each premix. Premixes were manufactured within 3 days of arrival of ethyl esters. To limit oxidation associated with storage, diets were manufactured once and stored in a refrigerated cooler at 4° C. during the duration of the study.
(§5) For male pens only, four out of the five pens were randomly selected. Two birds from each of these pens were randomly selected (eights birds per treatment). The right and left thigh and right and left breast from these 40 birds were bagged and labeled and frozen. The right breast and thigh samples were analyzed for shelf life stability and the left skinless breast and left boneless, skinless thigh from these same birds were analyzed for fatty acid composition.

[2] = 21 day broiler study: long chain fatty acid composition of thigh meat; format: in vivo, broiler chickens; settings: day 21-42; for ALA (C18:3n-3) / DHA (C22:6n-3) / DPA (C22:5 n-3) / EPA (C20:5n-3) / Omega 6/Omega 3 ratio / SDA (C18:4n-3) / Total omega 3's: boneless skinless thigh meat
Protocol: as §1, §2, §3, §4, §5

[3] = 42 day broiler study: fatty acid composition of breast meat; format: in vivo, broiler chickens (Ross x Ross 308)
Protocol: (§6) A 42 day study was conducted to determine whether broiler chickens fed a diet containing SDA could produce meat with elevated levels of omega-3 fatty acids as compared to chickens fed diets containing DHA and fish oil.
(§7) Fifty six pens of 25 male birds (Ross×Ross 308) per pen were used. Day old birds were obtained and immediately placed in floor pens containing (used) pine wood shavings, hanging tube feeders and nipple-waterers or plassons. Eight pens were each fed one of seven treatments for 42 days. The experiment was divided into four growth phases (0-7 days, 7-21 days, 21-35 days, and 35-42 days). The experimental diets were crumbled for the first two phases (0-21 days) and pelleted thereafter.
(§8) Diets consisted of 93% base mix (Table 10) plus 7% Test Oil Mix (Table 11). The diets supplied 3008, 3083, 3183 and 3208 kcal/kg of metabolizable energy for the pre-starter, starter, grower and finisher phases, respectively.
(§9) A randomized block design was used. Treatments were randomly assigned to pens such that each of the seven treatments was replicated 8 times (8 pens with each pen containing 25 birds).
(§10) On day 42, following a 10-hour period of feed withdrawal, 8 birds per pen (64 birds/treatment; 7 treatments; 448 birds total) were randomly selected and processed using commercial processing procedures. Carcasses were cut-up and de-boned at 4 hours postmortem. Carcass and parts yields were calculated and meat samples (breast and thigh) were collected for meat quality, fatty acid analysis, and sensory evaluation.

[4] = 42 day broiler study: fatty acid composition of thigh meat and attached skin; format: in vivo, broiler chickens (Ross x Ross 308)
Protocol: as §6, §7, §8, §9, §10

[5] = Laying hen study: long chain fatty acid composition of eggs; format: in vivo, laying hens; settings: total egg
Protocol: A study was conducted to determine whether laying hens fed a diet enriched in stearidonic acid could produce eggs with elevated levels of beneficial omega-3 fatty acids including EPA and DHA. Mature laying hens […] were randomly allotted to seven dietary treatments (16 hens/treatment) and were fed diets containing the following levels of n-3 fatty acids as described in Table 28 for four weeks. Sixteen birds were given each treatment. Four birds were randomly selected out of the 16 per treatment to obtain eggs during week 4 for fatty acid composition. […] The laying hens had ad libitum access to feed and water. The composition of the diets (Table 29) and premixes (Table 30) are provided below. To help prevent oxidation of the fatty acids, 0.05% ethoxyquin (Rendox) was added to each premix. Premixes were manufactured within 3 days of arrival of ethyl esters. To limit the oxidation associated with storage, diets were manufactured once and stored in a refrigerated cooler at 4° C. during the duration of the study. Eggs collected during […] (days 22-28) were maintained under refrigerated conditions until all eggs for that week were collected. Eggs were sorted by hen and treatment. Two eggs per hen from 4 hens per treatment were taken. The two eggs were weighed individually, cracked and the shell weighed. The difference between fresh egg and shell represented liquid egg weight and served as the basis for further calculations. The liquid fraction from each of the two eggs per hen were combined in a sample cup and homogenized. Samples were analyzed for fatty acids by gas chromatography.

[6] = 0.27% in feed (as ethyl esters), day 0-42
[7] = thigh meat and attached skin, 0.27% in feed (as ethyl esters), day 0-42

CC/C=C\C/C=C\C/C=C\C/C=C\C/C=C\C/C=C\CCC(=O)OCC [DHA Ethyl Ester]
ALA (C18:3n-3) ([1]; ethyl ester 0.163% of diet): 10 mg/100 g | DHA (C22:6n-3) ([1]; ethyl ester 0.163% of diet): 55.0 mg/100 g | DPA (C22:5 n-3) ([1]; ethyl ester 0.163% of diet): 10 mg/100 g | EPA (C20:5n-3) ([1]; ethyl ester 0.163% of diet): 10 mg/100 g | Omega 6/Omega 3 ratio ([1]; ethyl ester 0.163% of diet): 2.9 | Total omega 3's ([1]; ethyl ester 0.163% of diet): 85.0 mg/100 g | ALA (C18:3n-3) ([1]; ethyl ester 0.326% of diet): 10 mg/100 g | DHA (C22:6n-3) ([1]; ethyl ester 0.326% of diet): 80 mg/100 g | DPA (C22:5 n-3) ([1]; ethyl ester 0.326% of diet): 10 mg/100 g | EPA (C20:5n-3) ([1]; ethyl ester 0.326% of diet): 10 mg/100 g | Omega 6/Omega 3 ratio ([1]; ethyl ester 0.326% of diet): 1.9 | Total omega 3's ([1]; ethyl ester 0.326% of diet): 110 mg/100 g | ALA (C18:3n-3) ([2]; ethyl ester 0.163% of diet): 70 mg/100 g | DHA (C22:6n-3) ([2]; ethyl ester 0.163% of diet): 67.5 mg/100 g | DPA (C22:5 n-3) ([2]; ethyl ester 0.163% of diet): 15 mg/100 g | EPA (C20:5n-3) ([2]; ethyl ester 0.163% of diet): 10 mg/100 g | Omega 6/Omega 3 ratio ([2]; ethyl ester 0.163% of diet): 8.4 | SDA (C18:4n-3) ([2]; ethyl ester 0.163% of diet): 10 mg/100 g | Total omega 3's ([2]; ethyl ester 0.163% of diet): 172.5 mg/100 g | ALA (C18:3n-3) ([2]; ethyl ester 0.326% of diet): 75 mg/100 g | DHA (C22:6n-3) ([2]; ethyl ester 0.326% of diet): 125 mg/100 g | DPA (C22:5 n-3) ([2]; ethyl ester 0.326% of diet): 20 mg/100 g | EPA (C20:5n-3) ([2]; ethyl ester 0.326% of diet): 27.5 mg/100 g | Omega 6/Omega 3 ratio ([2]; ethyl ester 0.326% of diet): 5.7 | SDA (C18:4n-3) ([2]; ethyl ester 0.326% of diet): 10 mg/100 g | Total omega 3's ([2]; ethyl ester 0.326% of diet): 257.5 mg/100 g | total omega 3 fatty acids in thigh meat relative to breast meat ([2]; supplemented birds): 2 times | ARA C20:4n-6 [3, 6]: 3.01 % of fatty acids | C16:0 [3, 6]: 21.82 % of fatty acids | C16:1 [3, 6]: 3.09 % of fatty acids | C18:0 [3, 6]: 8.76 % of fatty acids | C18:1 [3, 6]: 30.41 % of fatty acids | C18:2 [3, 6]: 22.94 % of fatty acids | C22:4n-6 [3, 6]: 0.53 % of fatty acids | DHA (C22:6n-3) [3, 6]: 2.78 % of fatty acids | DPA (C22:5 n-3) [3, 6]: 0.48 % of fatty acids | EPA (C20:5n-3) [3, 6]: 0.16 % of fatty acids | SDA (C18:4n-3) [3, 6]: 0.59 % of fatty acids | Total C18:3 [3, 6]: 0.66 % of fatty acids | Total SDA, EPA, DPA and DHA concentrations ([3]; % of fatty acids, 0.27% in feed): 4.00% | ARA C20:4n-6 [4, 7]: 0.81 % of fatty acids | C16:0 [4, 7]: 21.71 % of fatty acids | C16:1 [4, 7]: 4.48 % of fatty acids | C18:0 [4, 7]: 6.31 % of fatty acids | C18:1 [4, 7]: 35.94 % of fatty acids | C18:2 [4, 7]: 25.99 % of fatty acids | C20:4n-3 [4, 7]: 0.03 % of fatty acids | C22:4n-6 [4, 7]: 0.16 % of fatty acids | DHA (C22:6n-3) [4, 7]: 0.73 % of fatty acids | DPA (C22:5 n-3) [4, 7]: 0.14 % of fatty acids | EPA (C20:5n-3) [4, 7]: 0.11 % of fatty acids | SDA (C18:4n-3) [4, 7]: 0.24 % of fatty acids | Total C18:3 [4, 7]: 1.03 % of fatty acids | Total SDA, EPA, DPA and DHA concentrations ([4]; thigh meat, 0.27% in feed): 1.2% | ALA (C18:3n-3) ([5]; 0.163% of diet): 40 mg/100 g | DHA (C22:6n-3) ([5]; 0.163% of diet): 177.5 mg/100 g | DPA (C22:5 n-3) ([5]; 0.163% of diet): 10 mg/100 g | Omega 6/Omega 3 ratio ([5]; 0.163% of diet): 5.7 | Total omega 3's ([5]; 0.163% of diet): 227.5 mg/100 g | ALA (C18:3n-3) ([5]; 0.326% of diet): 40 mg/100 g | DHA (C22:6n-3) ([5]; 0.326% of diet): 247.5 mg/100 g | DPA (C22:5 n-3) ([5]; 0.326% of diet): 10 mg/100 g | EPA (C20:5n-3) ([5]; 0.326% of diet): 10 mg/100 g | Omega 6/Omega 3 ratio ([5]; 0.326% of diet): 3.8 | Total omega 3's ([5]; 0.326% of diet): 307.5 mg/100 g

CC/C=C\C/C=C\C/C=C\C/C=C\CCCCC(=O)OCC [SDA Ethyl Ester]
ALA (C18:3n-3) ([1]; ethyl ester 0.416% of diet): 10 mg/100 g | DHA (C22:6n-3) ([1]; ethyl ester 0.416% of diet): 10 mg/100 g | DPA (C22:5 n-3) ([1]; ethyl ester 0.416% of diet): 22.5 mg/100 g | EPA (C20:5n-3) ([1]; ethyl ester 0.416% of diet): 20 mg/100 g | Omega 6/Omega 3 ratio ([1]; ethyl ester 0.416% of diet): 2.9 | SDA (C18:4n-3) ([1]; ethyl ester 0.416% of diet): 22.5 mg/100 g | Total omega 3's ([1]; ethyl ester 0.416% of diet): 85 mg/100 g | ALA (C18:3n-3) ([1]; ethyl ester 0.832% of diet): 10 mg/100 g | DHA (C22:6n-3) ([1]; ethyl ester 0.832% of diet): 10 mg/100 g | DPA (C22:5 n-3) ([1]; ethyl ester 0.832% of diet): 30 mg/100 g | EPA (C20:5n-3) ([1]; ethyl ester 0.832% of diet): 27.5 mg/100 g | Omega 6/Omega 3 ratio ([1]; ethyl ester 0.832% of diet): 2.0 | SDA (C18:4n-3) ([1]; ethyl ester 0.832% of diet): 40 mg/100 g | Total omega 3's ([1]; ethyl ester 0.832% of diet): 117.5 mg/100 g | ALA (C18:3n-3) ([2]; ethyl ester 0.416% of diet): 82.5 mg/100 g | DHA (C22:6n-3) ([2]; ethyl ester 0.416% of diet): 20 mg/100 g | DPA (C22:5 n-3) ([2]; ethyl ester 0.416% of diet): 37.5 mg/100 g | EPA (C20:5n-3) ([2]; ethyl ester 0.416% of diet): 30 mg/100 g | Omega 6/Omega 3 ratio ([2]; ethyl ester 0.416% of diet): 4.4 | SDA (C18:4n-3) ([2]; ethyl ester 0.416% of diet): 187.5 mg/100 g | Total omega 3's ([2]; ethyl ester 0.416% of diet): 362.5 mg/100 g | ALA (C18:3n-3) ([2]; ethyl ester 0.832% of diet): 86.7 mg/100 g | DHA (C22:6n-3) ([2]; ethyl ester 0.832% of diet): 20 mg/100 g | DPA (C22:5 n-3) ([2]; ethyl ester 0.832% of diet): 50 mg/100 g | EPA (C20:5n-3) ([2]; ethyl ester 0.832% of diet): 50 mg/100 g | Omega 6/Omega 3 ratio ([2]; ethyl ester 0.832% of diet): 2.7 | SDA (C18:4n-3) ([2]; ethyl ester 0.832% of diet): 386.7 mg/100 g | Total omega 3's ([2]; ethyl ester 0.832% of diet): 593.3 mg/100 g | ALA (C18:3n-3) ([5]; 0.416% of diet): 42.5 mg/100 g | DHA (C22:6n-3) ([5]; 0.416% of diet): 150 mg/100 g | DPA (C22:5 n-3) ([5]; 0.416% of diet): 35 mg/100 g | EPA (C20:5n-3) ([5]; 0.416% of diet): 10 mg/100 g | Omega 6/Omega 3 ratio ([5]; 0.416% of diet): 5.0 | SDA (C18:4n-3) ([5]; 0.416% of diet): 10 mg/100 g | Total omega 3's ([5]; 0.416% of diet): 247.5 mg/100 g | ALA (C18:3n-3) ([5]; 0.832% of diet): 55 mg/100 g | DHA (C22:6n-3) ([5]; 0.832% of diet): 182.5 mg/100 g | DPA (C22:5 n-3) ([5]; 0.832% of diet): 60 mg/100 g | EPA (C20:5n-3) ([5]; 0.832% of diet): 22.5 mg/100 g | Omega 6/Omega 3 ratio ([5]; 0.832% of diet): 3.7 | SDA (C18:4n-3) ([5]; 0.832% of diet): 25 mg/100 g | Total omega 3's ([5]; 0.832% of diet): 360 mg/100 g
